These results are taken from US9107413B2, “Pesticidal compositions and processes related thereto” (priority 2011, dated 2015).

Type in all cases: in vivo
For experiment [1], the system named is CEW (Helicoverpa zea). As to the kind of experiment: Bioassay on corn earworm (CEW), 128-well diet tray assay. The settings on record: 168 h, read-out: % Mortality CEW 50 μg/cm^2. On the procedure:
(§1) Certain molecules disclosed in this document were tested against BAW and CEW using procedures described in the following examples. In the reporting of the results, the “BAW & CEW Rating Table” was used (See Table Section).
Bioassays on CEW (Helicoverpa zea)
Bioassays on CEW were conducted using a 128-well diet tray assay. […] Trays were covered with a clear self-adhesive cover and held at 25° C., 14:10 light-dark for five to seven days. Percent mortality was recorded for the larvae in each well; activity in the eight wells was then averaged. The results are indicated in the table entitled “Table 5: Biological Results” (See Table Section).

Experiment [2] concerns GPA (Myzus persicae). The experiment is described as follows: Bioassay on green peach aphid (GPA), foliar spray on cabbage seedlings. Conditions: 72 h, read-out: % Mortality GPA 200 ppm. On the procedure: Certain molecules disclosed in this document were tested against GPA using procedures described in the following example. In the reporting of the results, the “GPA Rating Table” was used (See Table Section).
Cabbage seedlings grown in 3-inch pots, with 2-3 small (3-5 cm) true leaves, were used as test substrate. The seedlings were infested with 20-50 GPA (wingless adult and nymph stages) one day prior to chemical application. Four pots with individual seedlings were used for each treatment. Test compounds (2 mg) were dissolved in 2 mL of acetone/methanol (1:1) solvent, forming stock solutions of 1000 ppm test compound. […] A hand-held aspirator-type sprayer was used for spraying a solution to both sides of […] leaves until runoff. Reference plants (solvent check) were sprayed with the diluent only containing 20% by volume of acetone/methanol (1:1) solvent. Treated plants were held in a holding room for three days at approximately 25° C. and ambient relative humidity (RH) prior to grading. Evaluation was conducted by counting the number of live aphids per plant under a microscope. […] Corrected % Control=100*(X−Y)/X • where • X=No. of live aphids on solvent check plants and • Y=No. of live aphids on treated plants
The results are indicated in the table entitled “Table 5: Biological Results” (See Table Section).

Experiment [3] deals with BAW (Spodoptera exigua). The experiment is described as follows: Bioassay on beet armyworm (BAW), 128-well diet tray assay. Conditions: 168 h, read-out: % Mortality BAW 50 μg/cm^2. As to the method:
as §1
Bioassays on BAW (Spodoptera exigua)
Bioassays on BAW were conducted using a 128-well diet tray assay. […] Trays were covered with a clear self-adhesive cover and held at 25° C., 14:10 light-dark for five to seven days. Percent mortality was recorded for the larvae in each well; activity in the eight wells was then averaged. The results are indicated in the table entitled “Table 5: Biological Results” (See Table Section).

[4] abbreviates: 50 μg/cm^2 on artificial diet, second instar larvae, five to seven days, 25° C.
Setting [5] is: 200 ppm foliar spray on cabbage seedlings, three days, Abbott corrected % control.

Read-outs that look alike come from different tables or passages of the source.

Regarding `Cc1cccc(C)c1/N=C(/N/N=C/c1ccc(-c2ncn(-c3ccc(OC(F)(F)F)cc3)n2)cc1)SCC#C[Si](C)(C)C` [Compound 9C], the mortality at 50 µg/cm2 in experiment [1] and in experiment [3] was 50 to 100% each time. In addition, the mortality at 200 ppm in experiment [2] (foliar) was 0%.

Regarding `Cc1cccc(C)c1/N=C(/N/N=C/c1ccc(-c2ncn(-c3ccc(OC(F)(F)F)cc3)n2)cc1)SCOC(=O)CNC(=O)OCc1ccccc1` [Compound 23C], the mortality at 50 µg/cm2 in experiment [1] and in experiment [3] was 50 to 100% throughout. In experiment [2] (foliar), the mortality at 200 ppm was 0%.

Regarding `COc1cc(C)c(/N=C(/N/N=C/c2ccc(-c3ncn(-c4ccc(OC(F)(F)F)cc4)n3)cc2)SCOC(=O)CNC(=O)OCc2ccccc2)c(C)c1` [Compound 28C], the mortality at 50 µg/cm2 in experiment [1] and in experiment [3] was 50 to 100% throughout. Further, the mortality at 200 ppm in experiment [2] (foliar) fell in the range of 0 to 80%.

Regarding `COc1cc(C)c(/N=C(\N/N=C/c2ccc(-c3ncn(-c4ccc(C(F)(F)F)cc4)n3)cc2)SCOC(=O)CNC(=O)OCc2ccccc2)c(C)c1` [Compound 45C], the mortality at 50 µg/cm2 in experiment [1] and in experiment [3] was 50 to 100% each time.

For the compound `COc1cc(C)c(/N=C(/N/N=C/c2ccc(-c3ncn(-c4ccc(OC(F)(F)F)cc4)n3)cc2)SCC(=O)N2CCNCC2)c(C)c1` [Compound 65C], the mortality at 50 µg/cm2 in experiment [1] (setting [4]) and in experiment [3] (setting [4]) was 50 to 100% throughout. Also, the mortality at 200 ppm in experiment [2] (setting [5]) was 0 to 80%.

As to `CC(C)c1ccccc1N1C(=O)CS/C1=N\N=C\c1ccc(-c2ncn(-c3ccc(OC(F)(F)F)cc3)n2)cc1` [Compound 73C], the mortality at 50 µg/cm2 in experiment [1] (setting [4]) and in experiment [3] (setting [4]) was 50 to 100% throughout. In addition, in experiment [2] (setting [5]), the mortality at 200 ppm was in the range of 0 to 80%.

Consider `C/C(=N\N=C1/SCC(=O)N1c1ccccc1C(C)C)c1ccc(-c2ncn(-c3ccc(OC(F)(F)F)cc3)n2)cc1` [Compound 122C], for which the mortality at 50 µg/cm2 in experiment [1] (setting [4]) and in experiment [3] (setting [4]) was 50 to 100% throughout.

Regarding `FC(F)Oc1ccccc1N1CCCS/C1=N\N=C\c1ccc(-c2ncn(-c3ccc(OC(F)(F)F)cc3)n2)cc1` [Compound 200C], the mortality at 50 µg/cm2 in experiment [1] (setting [4]) and in experiment [3] (setting [4]) was 50 to 100% in each case.

As for `Cc1cccc(Cl)c1N1/C(=N/N=C/c2ccc(-c3ncn(-c4ccc(OC(F)(F)F)cc4)n3)cc2)SCCC1C` (stereo not shown) [Compound 227C], the mortality at 50 µg/cm2 in experiment [1] (setting [4]) and in experiment [3] (setting [4]) was 50 to 100% in each case.

Turning to `CC1CCS/C(=N\N=C\c2ccc(-c3ncn(-c4ccc(OC(F)(F)F)cc4)n3)cc2)N1c1ccccc1OC(C)(F)F` (stereo not shown) [Compound 229C], the mortality at 50 µg/cm2 in experiment [1] (setting [4]) and in experiment [3] (setting [4]) was 50 to 100% in each case.
